Experimental data taken from patent US20250361274A1, “PEPTIDE AND PEPTIDE-CONTAINING AGENT” (PEPTIDREAM INC., priority 2022, published 2025).
One block for each molecule: values may come before it. Numbered stars: 1 amine (or outer) side, 2 acyl side, 3 side chain; on linkers, the order of the positions; unused ones are H or OH. Bridge positions count the residues as written; N and C are the ends. Square brackets hold non-standard residues; d marks the D form. Side chains are listed from the residue outwards. Peptide text beside a SMILES is read from it. I, II: the chains in the order shown. * marks the point of attachment. ξ: configuration not given here. X6 = N=C(N)NCCC[C@H](CC(=O)[C@H](CCCCNC(=O)N1CCN(CC(=O)O)CC1)N[*:2])C(=O)C[C@@H](Cc1ccc(-c2ccccc2)nc1)C(=O)[*:1]; X10 = N=C(N)NCCC[C@H](CC(=O)[C@H](CCCCNC(=O)N1CCN(CC(=O)O)CC1)N[*:2])C(=O)[*:1]; X4 = O=C(O)c1ccc(C[C@H](N[*:1])C(=O)C[C@@H](CO)C(=O)[*:2])cc1; X9 = O=C([C@H](Cc1ccc(-c2cccc(F)c2)cc1)N[*:1])[*:2]; 3Pal(6-Ph) = N[C@@H](Cc1ccc(-c2ccccc2)nc1)C(=O)O; X3 = O=C(C[C@@H](Cc1ccc(F)cc1)C(=O)[*:1])C[*:2]; Phe(4-COOH) = N[C@@H](Cc1ccc(C(=O)O)cc1)C(=O)O; NMePhe(4-Me) = CN[C@@H](Cc1ccc(C)cc1)C(=O)O; Piperazinyl(4-CH2COOH) = O=C(O)CN1CCN(*)CC1; Bip = N[C@@H](Cc1ccc(-c2ccccc2)cc1)C(=O)O; Phe(4-F) = N[C@@H](Cc1ccc(F)cc1)C(=O)O; cisHyp = O=C(O)[C@@H]1C[C@H](O)CN1; Hyp = O=C(O)[C@@H]1C[C@@H](O)CN1; NMeF = CN[C@@H](Cc1ccccc1)C(=O)O; Aad = N[C@@H](CCCC(=O)O)C(=O)O; Cha = N[C@@H](CC1CCCCC1)C(=O)O; β3hC = N[C@@H](CS)CC(=O)O; X5 = O=C(C[*:1])[*:2]; CO = O=C([*:1])[*:2]; ξC = NC(CS)C(=O)O; βAla = NCCC(=O)O

How the values were obtained:
BMP4 [1] = target: T1, BMP4 (Homo sapiens, UniProt P12644); test: BMP4 signal transduction inhibitory activity: SMAD1 phosphorylation by BMP4 stimulus, AlphaLISA SureFire, A549 cells; type: cell-based; details: for aLISA BMP4: SMAD1 phosphorylation, peptides of Synthesis 2, peptide 0.02, 0.2, 2 nM
T1 sequence (P12644 293-408): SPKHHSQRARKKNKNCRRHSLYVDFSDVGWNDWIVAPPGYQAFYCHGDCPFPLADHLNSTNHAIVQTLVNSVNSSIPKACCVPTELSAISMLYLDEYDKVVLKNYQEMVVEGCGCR

BMP7 = target: T2, BMP7 (Homo sapiens, UniProt P18075); test: BMP7 signal transduction inhibitory activity: SMAD1 phosphorylation by BMP7 stimulus, A549 cells; type: cell-based; details: for aLISA BMP7: A549 cells, 10 nM BMP7, peptides of Synthesis 2, peptide 1, 10, 100 nM
T2 sequence (P18075 293-431): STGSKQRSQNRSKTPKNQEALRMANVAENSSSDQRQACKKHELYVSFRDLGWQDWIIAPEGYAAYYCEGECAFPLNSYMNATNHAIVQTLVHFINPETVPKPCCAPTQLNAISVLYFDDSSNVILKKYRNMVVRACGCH
Summary of the method: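 A549 cells were stimulated with 10 nM BMP7, and peptide inhibition of signalling was measured as SMAD1 phosphorylation. Peptides were tested at three concentrations, in sets ranging from 1–100 nM to 100–1,000 nM, or as eight-point 1/3 dilution series starting at 100 nM or 1,000 nM.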

BMP4 [2] = target: T3, BMP4 (UniProt P12644 293-408); test: cell-based or functional assay
T3 sequence (looked up): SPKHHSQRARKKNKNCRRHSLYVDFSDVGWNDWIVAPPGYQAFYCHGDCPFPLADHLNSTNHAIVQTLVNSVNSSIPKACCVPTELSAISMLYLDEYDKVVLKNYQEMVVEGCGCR

Molecule: CC(C)[C@@H]1NC(=O)[C@H](Cc2ccc(C(=O)O)cc2)NC(=O)[C@H](C(C)C)NC(=O)[C@H](CCCNC(=N)N)NC(=O)[C@H](CCC(=O)O)NC(=O)CSCC(C(=O)NCC(N)=O)NC(=O)[C@H](CO)CC(=O)[C@H](Cc2ccc(C(=O)O)cc2)NC(=O)[C@H](Cc2ccc(C(=O)O)cc2)NC(=O)[C@H](Cc2ccc(O)cc2)NC(=O)[C@H](Cc2ccc(-c3ccccc3)cc2)NC(=O)[C@@H]2C[C@@H](O)CN2C(=O)[C@H](Cc2ccc(O)cc2)NC(=O)[C@H](CCCCNC(=O)N2CCN(CC(=O)O)CC2)NC(=O)[C@H](Cc2ccc(-c3ccccc3)nc2)CC(=O)[C@H](CCCNC(=N)N)CC(=O)[C@H](CCCCNC(=O)N2CCN(CC(=O)O)CC2)NC1=O (stereo partly drawn) [SEQ ID No. 277, ClAc-E-R-V-F4COO-V-KCOpipzaa-R-3Py6Ph-KCOpipzaa-Y-Hyp-Bph-Y-F4COO-F4COO-S-C-G-NH2] (I: K([CO-Piperazinyl(4-CH2COOH)])Y[Hyp][Bip]Y[Phe(4-COOH)][X4][ξC]G-NH2 / II: ERV[Phe(4-COOH)]V; linker I:8-II:N via X5; linker I:N-II:C via X6)
BMP4 inhibitory activity (in words) (BMP4 [1]): same level of the BMP4 inhibitory activity as Noggin
aLISA BMP4 (BMP4 [1]; A549 cells): A (showed an inhibitory activity of 50% or more in a zone to which the peptide was added to in an amount of 0.2 nM)
aLISA BMP7 (BMP7): C (showed less than 50% of inhibitory activity in 10 nM-addition zone and showed 50% or more of inhibitory activity in 100 nM-addition zone)

Molecule: CC(C)[C@@H]1NC(=O)[C@H](Cc2ccc(C(=O)O)cc2)NC(=O)[C@H](C(C)C)NC(=O)[C@H](CCCNC(=N)N)NC(=O)[C@H](CCC(=O)O)NC(=O)CSCC(C(=O)NCC(N)=O)NC(=O)[C@H](CO)NC(=O)[C@H](Cc2ccc(C(=O)O)cc2)NC(=O)[C@H](Cc2ccc(C(=O)O)cc2)NC(=O)[C@H](Cc2ccc(O)cc2)NC(=O)[C@H](Cc2ccc(-c3cccc(F)c3)cc2)NC(=O)[C@@H]2C[C@@H](O)CN2C(=O)[C@H](Cc2ccc(O)cc2)NC(=O)[C@H](CCCCNC(=O)N2CCN(CC(=O)O)CC2)NC(=O)[C@H](Cc2ccc(-c3ccccc3)nc2)NC(=O)[C@H](CCCNC(=N)N)CC(=O)[C@H](CCCCNC(=O)N2CCN(CC(=O)O)CC2)NC1=O (some centres unmarked) [SEQ ID No. 311, ClAc-E-R-V-F4COO-V-KCOpipzaa-R-3Py6Ph-KCOpipzaa-Y-Hyp-Bph3F-Y-F4COO-F4COO-S-C-G-NH2] (I: [3Pal(6-Ph)]K([CO-Piperazinyl(4-CH2COOH)])Y[Hyp][X9]Y[Phe(4-COOH)][Phe(4-COOH)]S[ξC]G-NH2 / II: ERV[Phe(4-COOH)]V; linker I:10-II:N via X5; linker I:N-II:C via X10)
aLISA BMP4 (BMP4 [1]; A549 cells): A (showed an inhibitory activity of 50% or more in a zone to which the peptide was added to in an amount of 0.2 nM)
aLISA BMP7 (BMP7): C (showed less than 50% of inhibitory activity in 10 nM-addition zone and showed 50% or more of inhibitory activity in 100 nM-addition zone)

Molecule: CC(C)C[C@@H]1NC(=O)[C@H](Cc2ccccc2)N(C)C(=O)[C@H](CCCC(=O)O)NC(=O)[C@H](CC2CCCCC2)NC(=O)[C@H](CCC(=O)O)NC(=O)[C@H](CC(=O)O)NC(=O)CNC(=O)[C@H](Cc2ccc(-c3ccccc3)nc2)NC(=O)CNC(=O)[C@H](Cc2ccccc2)N(C)C(=O)CNC(=O)[C@H](Cc2ccccc2)NC(=O)CSC[C@@H](C(=O)NCCC(=O)N[C@H](CCC(=O)O)C(=O)O)NC(=O)[C@@H]2C[C@H](O)CN2C1=O [SEQ ID No. 415, ClAc-F-G-MeF-G-3Py6Ph-G-D-E-Cha-Hgl-MeF-L-P4Sh-C-bA-de-OH] ({CH2CO}-FG[NMeF]G[3Pal(6-Ph)]GDE[Cha][Aad][NMeF]L[cisHyp]C[βAla][dE]-OH; thioether N-14)
aLISA BMP4 (BMP4 [1]; A549 cells): A (showed an inhibitory activity of 50% or more in a zone to which the peptide was added to in an amount of 0.2 nM)
aLISA BMP7 (BMP7): C (showed less than 50% of inhibitory activity in 10 nM-addition zone and showed 50% or more of inhibitory activity in 100 nM-addition zone)

Molecule: Cc1ccc(C[C@H]2C(=O)N[C@@H](CC(C)C)C(=O)N3C[C@@H](O)C[C@H]3C(=O)N[C@H](CC(=O)NCCC(=O)N[C@H](CCC(=O)O)C(=O)O)CSCC(=O)C[C@@H](Cc3ccc(F)cc3)C(=O)NCC(=O)N(C)[C@@H](Cc3ccccc3)C(=O)NCC(=O)N[C@@H](Cc3ccc(-c4ccccc4)nc3)C(=O)NCC(=O)N[C@@H](CC(=O)O)C(=O)N[C@@H](CCC(=O)O)C(=O)N[C@@H](CC3CCCCC3)C(=O)N[C@@H](CCCC(=O)O)C(=O)N2C)cc1 [SEQ ID No. 417, ClAc-F4F-G-MeF-G-3Py6Ph-G-D-E-Cha-Hgl-MeF4Me-L-P4Sh-C-bA-de-OH] (G[NMeF]G[3Pal(6-Ph)]GDE[Cha][Aad][NMePhe(4-Me)]L[cisHyp][β3hC][βAla][dE]-OH; linker N-13 via X3)
BMP4 inhibitory activity (in words) (BMP4 [1]): does not inhibit signal transduction of BMP 4
aLISA BMP4 (BMP4 [1]; A549 cells): A (showed an inhibitory activity of 50% or more in a zone to which the peptide was added to in an amount of 0.2 nM)
BMP7 inhibitory activity (in words) (BMP7): same level of the BMP7 inhibitory activity as Noggin
aLISA BMP7 (BMP7): C (showed less than 50% of inhibitory activity in 10 nM-addition zone and showed 50% or more of inhibitory activity in 100 nM-addition zone)

Molecule: CC(C)[C@@H]1NC(=O)[C@H](Cc2ccc(C(=O)O)cc2)NC(=O)[C@H](C(C)C)NC(=O)[C@H](CCCNC(=N)N)NC(=O)[C@H](CCC(=O)O)NC(=O)CSC[C@@H](C(=O)NCC(N)=O)NC(=O)[C@H](CO)NC(=O)[C@H](Cc2ccc(C(=O)O)cc2)NC(=O)[C@H](Cc2ccc(C(=O)O)cc2)NC(=O)[C@H](Cc2ccc(O)cc2)NC(=O)[C@H](Cc2ccc(-c3ccccc3)cc2)NC(=O)[C@@H]2C[C@@H](O)CN2C(=O)[C@H](Cc2ccc(O)cc2)NC(=O)[C@H](CCCCNC(=O)N2CCN(CC(=O)O)CC2)NC(=O)[C@H](Cc2ccc(-c3ccccc3)nc2)NC(=O)[C@H](CCCNC(=N)N)NC(=O)[C@H](CCCCNC(=O)N2CCN(CC(=O)O)CC2)NC1=O [compound 277] ({CH2CO}-ERV[Phe(4-COOH)]VK([CO-Piperazinyl(4-CH2COOH)])R[3Pal(6-Ph)]K([CO-Piperazinyl(4-CH2COOH)])Y[Hyp][Bip]Y[Phe(4-COOH)][Phe(4-COOH)]SCG-NH2; thioether N-17)
aLIZA BMP4 (0.2 nM) % inh (BMP4 [1]; BMP4 0.2 nM stimulus, peptide conc. in assay 0.02, 0.2, 2 nM, class symbols): B (showed less than 30% of inhibitory activity in 0.02 nM-addition zone and showed 30% or more of inhibitory activity in 0.2 nM-addition zone)
aLIZA BMP7 (10 nM) % inh (BMP7; BMP7 10 nM stimulus, peptide conc. in assay 100, 300, 1000 nM, class symbols): H (showed less than 30% of inhibitory activity in 300 nM-addition zone and showed 30% or more of inhibitory activity in 1,000 nM-addition zone)

Molecule: Cc1ccc(C[C@H]2C(=O)N[C@@H](CC(C)C)C(=O)N3C[C@@H](O)C[C@H]3C(=O)N[C@H](C(=O)NCCC(=O)N[C@H](CCC(=O)O)C(=O)O)CSCC(=O)N[C@@H](Cc3ccc(F)cc3)C(=O)NCC(=O)N(C)[C@@H](Cc3ccccc3)C(=O)NCC(=O)N[C@@H](Cc3ccc(-c4ccccc4)nc3)C(=O)NCC(=O)N[C@@H](CC(=O)O)C(=O)N[C@@H](CCC(=O)O)C(=O)N[C@@H](CC3CCCCC3)C(=O)N[C@@H](CCCC(=O)O)C(=O)N2C)cc1 [compound 417] ({CH2CO}-[Phe(4-F)]G[NMeF]G[3Pal(6-Ph)]GDE[Cha][Aad][NMePhe(4-Me)]L[cisHyp]C[βAla][dE]-OH; thioether N-14)
aLISA BMP4 (0.2 nM) % inh (BMP4 [1]; BMP4 0.2 nM stimulus, peptide conc. in assay 0.2, 2, 20 nM): ND (the inhibitory activity was less than 30% at the maximum concentration evaluated)
aLISA BMP7 (10 nM) % inh (BMP7; BMP7 10 nM stimulus, peptide conc. in assay 1, 10, 100 nM): C (showed less than 30% of inhibitory activity in a zone to which the peptide was added in an amount of 1 nM and showed 30% or more of inhibitory activity in 10 nM-addition zone)

IC50 (BMP4 [1]; Table 2-2, 277 from 20 nM (1/3), 417 from 300 nM (1/4), ND = IC50 was not calculated): 130 pM
IC50 (BMP4 [1]; Table 2, eight concentrations, ratio 1/3 from 2 nM, A549 cells): 80 pM
IC50 (BMP7; Table 2-2, 277 from 1,000 nM (1/3), 417 from 300 nM (1/4)): 5740 pM
IC50 (BMP7; Table 2, eight concentrations, ratio 1/3 from 100 nM, ND = IC50 was not calculated in the evaluation systems): 2700 pM
B1: Noggin: recombinant Human Noggin Protein (R&D), positive control; secreted protein that has BMP inhibitory activity (protein)
chain: QHYLHIRPAPSDNLPLVDLIEHPDPIFDPKEKDLNETLLRSLLGGHYDPGFMATSPPEDRPGGGGGAAGGAEDLAELDQLLRQRPSGAMPSEIKGLEFSEGLAQGKKQRLSKKLRRKLQMWLWSQTFCPVLYAWNDLGSRFWPRYVKVGSCFSKRSCSVPEGMVCKPSKSVHLTVLRWRCQRRGGQRCGWIPIQYPIISECKCSC

IC50 (nM), SMAD1 phosphorylation in A549 cells (BMP4 [2]): 0.08 nM
B2: BMP4 signal transduction inhibition peptide No. 87 (SEQ ID NO: 87) (peptide)
peptide: {CH2CO}-ERVYVDR[3Pal(6-Ph)]SYV[Bip]Y[Phe(4-COOH)][Phe(4-COOH)]SCG-NH2
modifications: thioether N-17 (inferred)
